Laboratory results from patent US9637469B2, “Pyridine derivative” (Teijin Pharma Limited, priority 2012, dated 2017).

biological target: T1, human URAT1 (Homo sapiens, UniProt Q96S37); test: Test for inhibition of uric acid transport using human URAT1-expressing cells;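 also: three stars up to 0.2 µM two stars 0.2-2 µM one star 2-20 µM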; format: cell-based; details: HEK 293 cells expressing human URAT1; 14C-labeled uric acid 25 μM; uptake 37° C. for 5 min
T1 construct: Full-length cDNA of human URAT1 (hURAT1)
T1 sequence (Q96S37 1-553): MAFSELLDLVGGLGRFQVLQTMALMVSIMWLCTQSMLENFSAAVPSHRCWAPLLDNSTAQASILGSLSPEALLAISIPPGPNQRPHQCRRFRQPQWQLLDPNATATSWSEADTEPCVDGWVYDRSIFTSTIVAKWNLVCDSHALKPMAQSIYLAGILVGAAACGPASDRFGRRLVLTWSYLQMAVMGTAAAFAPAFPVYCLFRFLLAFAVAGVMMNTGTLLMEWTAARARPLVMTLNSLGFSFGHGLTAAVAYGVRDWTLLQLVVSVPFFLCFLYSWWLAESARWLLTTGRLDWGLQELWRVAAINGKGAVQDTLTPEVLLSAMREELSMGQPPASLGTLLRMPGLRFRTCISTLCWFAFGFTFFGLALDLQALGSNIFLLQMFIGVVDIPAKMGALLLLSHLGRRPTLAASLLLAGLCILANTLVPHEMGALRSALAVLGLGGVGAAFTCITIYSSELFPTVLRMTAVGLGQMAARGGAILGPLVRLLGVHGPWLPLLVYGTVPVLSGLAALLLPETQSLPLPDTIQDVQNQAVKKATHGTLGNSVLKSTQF
Method: (1) Preparation of the Test Compound
The test compound was dissolved in DMSO (produced by Sigma) to a concentration of 20 mM and was subsequently used by diluting to desired concentrations.
(2) Test for Inhibition of Uric Acid Transport Using Human URAT1-Expressing Cells
Full-length cDNA of human URAT1 (hURAT1) (produced by OriGene Technologies, Inc., NCBI Reference Sequence: NM 144585) was subcloned into an expression vector, pCMV6-Kan/Neo (produced by OriGene Technologies, Inc.), and hURAT1 gene was transfected into human embryonic kidney-derived cells (HEK 293 cells) by liposome method using Lipofectamine 2000 (produced by Invitrogen Corporation), whereupon HEK 293 cells expressing human URAT1 gene were screened by its Geneticin resistance. By a method similar to the following method, functional expression of human URAT1 gene was confirmed by using transport of ^14C-labeled uric acid into the cells as an index.
The HEK 293 cells expressing human URAT1 were seeded in a 24-well cell culture dish to a density of 3×10^5 cells/mL/well and were cultured in Dulbecco's modified Eagle's medium (D-MEM medium) containing 10% fetal bovine serum at 37° C. for 2 days. Thereafter, the following test for inhibition of uric acid transport was performed.
After the medium was removed by aspiration from each well, the medium was replaced with a solution obtained by substituting NaCl in Hank's Balanced Salt Solution (HBSS) with Na gluconate (hereinafter, HBSS/Na-gluconate) and the cells were preincubated at 37° C. for about 10 minutes. HBSS/Na-gluconate was removed by aspiration and a ^14C-uric acid solution that was warmed at 37° C. in advance containing various concentrations of the Example compound described in (1) and a radioactive ligand (^14C-labeled uric acid; final concentration 25 μM) was added and an uptake reaction was carried out by incubating at 37° C. for 5 min. After the incubation, ^14C-labeled uric acid solution was removed by aspiration and the cells were washed three times with ice-cold HBSS. The HEK 293 cells expressing human URAT1 were lysed in 0.2 mol/L aqueous NaOH (hereafter, the cell sample) and the cell samples were collected. The cell sample and a liquid scintillation liquid, ULTIMA GOLD (produced by PerkinElmer, Inc.) were mixed and the radioactivity was measured by a liquid scintillation counter (Beckman Coulter, Inc.).
The uric acid transport rate of the Example compound at each concentration (% of control uptake) was calculated relative to the radioactivity (radioactivity in human URAT1 expressing HEK 293 cells without addition of the Example compound (DMSO addition)) showing URAT1-specific uric acid transport as 100%, and the concentration (IC50) of the Example compound at which the uric acid transport rate is inhibited by 50% was determined. In addition, the symbols (*, **, and ***) in the table represent the following inhibitory activity values: • IC50≦_ 0.2 μM: *** • 0.2 μM<IC50≦2 μM: ** • 2 μM<IC50≦20 μM: *

| SMILES | Inhibitory Activity (IC50 of uric acid transport inhibition) |
| --- | --- |
| O=C(O)c1c(C2CC2)nc(-c2cncc(Cl)c2)n1Cc1cccc2ccccc12 [Compound A145, 2-(5-chloropyridin-3-yl)-4-cyclopropyl-1-(naphthalen-1-ylmethyl)-1H-imidazole-5-carboxylic acid] | * * * |
| C#Cc1nc(-c2cncc(Cl)c2)n(Cc2cc(Cl)ccc2Cl)c1C(=O)O [Compound A209, 2-(5-chloropyridin-3-yl)-1-(2,5-dichlorobenzyl)-4-ethynyl-1H-imidazole-5-carboxylic acid] | * * * |
| Cc1nc(-c2cccnc2)n(Cc2sc(Cl)cc2Cl)c1C(=O)O [Compound A80, 1-((2,4-dichlorothiophen-5-yl)methyl)-4-methyl-2-(pyridin-3-yl)-1H-imidazole-5-carboxylic acid] | * * |
| CS(=O)(=O)NC(=O)c1ccc(-c2cncc(F)c2)n1Cc1cc(Cl)ccc1Cl [Compound B26, 1-(2,5-dichlorobenzyl)-2-(5-fluoropyridin-3-yl)-N-(methylsulfonyl)-1H-pyrrole-5-carboxamide] | * * * |
| Cc1nc(-c2cccnc2)n(Cc2ccc(Cl)c(Cl)c2)c1C(=O)O [Compound A68, 1-(3,4-dichlorobenzyl)-4-methyl-2-(pyridin-3-yl)-1H-imidazole-5-carboxylic acid] | * * |
| O=C(O)c1ccc(-c2cccnc2)n1Cc1cccc2ccsc12 [Compound B20, 1-(benzo[b]thiophen-7-ylmethyl)-2-(pyridin-3-yl)-1H-pyrrole-5-carboxylic acid] | * * * |
| O=C(O)c1ccc(-c2cncc(Cl)c2)n1Cc1csc2cccc(Cl)c12 [Compound B18, 1-((4-chlorobenzo[b]thiophen-3-yl)methyl)-2-(5-chloropyridin-3-yl)-1H-pyrrole-5-carboxylic acid] | * * * |
| Cc1nc(-c2cccnc2)n(Cc2csc3cccc(Br)c23)c1C(=O)O [Compound A8, 1-((4-bromobenzo[b]thiophen-3-yl)methyl)-4-methyl-2-(pyridin-3-yl)-1H-imidazole-5-carboxylic acid] | * * |
| Cc1nc(-c2cncc(OCC(C)C)c2)n(Cc2cc(Cl)ccc2Cl)c1C(=O)O [Compound A188, 1-(2,5-dichlorobenzyl)-2-(5-isobutoxypyridin-3-yl)-4-methyl-1H-imidazole-5-carboxylic acid] | * * * |
| CCN(CC)Cc1nc(-c2cncc(Cl)c2)n(Cc2cc(Cl)ccc2Cl)c1C(=O)O [Compound A193, 2-(5-chloropyridin-3-yl)-1-(2,5-dichlorobenzyl)-4-((diethylamino)methyl)-1H-imidazole-5-carboxylic acid] | * * * |
| O=C(O)c1cnc(-c2cncc(Br)c2)n1Cc1cc(Cl)ccc1Cl [Compound A205, 2-(5-bromopyridin-3-yl)-1-(2,5-dichlorobenzyl)-1H-imidazole-5-carboxylic acid] | * * * |
| O=C(O)c1c(C2CC2)nc(-c2cccnc2)n1Cc1csc2cccc(Cl)c12 [Compound A33, 1-((4-chlorobenzo[b]thiophen-3-yl)methyl)-4-cyclopropyl-2-(pyridin-3-yl)-1H-imidazole-5-carboxylic acid] | * * |
| CC(C)(Sc1ncc(-c2cncc(Cl)c2)n1Cc1cc(Cl)ccc1Cl)C(=O)O [Compound A266, 2-((5-(5-chloropyridin-3-yl)-1-(2,5-dichlorobenzyl)-1H-imidazol-2-yl)thio)-2-methylpropanoic acid] | * * |

same assay, conditions: HEK 293 cells expressing human URAT1; 14C-labeled uric acid 25 μM; uptake 37° C. for 5 min; read-out: Inhibitory Activity (IC50 of uric acid transport inhibition)

| SMILES | IC50 |
| --- | --- |
| COc1ncccc1-c1nc(C)c(C(=O)O)n1Cc1cccc2ccccc12 [Compound A125] | 2 to 20 µM |
| Cc1nc(-c2cccnc2)n(Cc2cccc(C#N)c2)c1C(=O)O [Compound A65] | 2 to 20 µM |
| Cc1ccc2ccccc2c1Cn1c(-c2ccccn2)nc(C)c1C(=O)O [Compound A241] | 2 to 20 µM |
